Results published in article PMC2679150 (Science (New York, N.Y.), 2009).

Molecular target: T1, BlaC β-lactamase (Mycobacterium tuberculosis, UniProt P9WKD3)
T1 sequence (P9WKD3 35-307): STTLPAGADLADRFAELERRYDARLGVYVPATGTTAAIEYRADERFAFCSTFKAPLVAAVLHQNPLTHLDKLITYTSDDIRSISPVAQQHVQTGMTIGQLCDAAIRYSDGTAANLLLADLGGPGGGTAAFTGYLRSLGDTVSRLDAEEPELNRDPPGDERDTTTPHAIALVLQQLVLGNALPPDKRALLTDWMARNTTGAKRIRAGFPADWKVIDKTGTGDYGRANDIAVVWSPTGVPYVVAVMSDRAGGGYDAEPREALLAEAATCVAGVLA
Experiment: biochemical

## C[C@@H](O)[C@H]1C(=O)N2C(C(=O)O)=C(S[C@@H]3CN[C@H](C(=O)N(C)C)C3)[C@H](C)[C@H]12 [meropenem]
  Ki: 1.1 ± 0.8 µM
